From PMC3150642 (Journal of medicinal chemistry, 2011) come the findings set out here.

A short description of one test: DPPH Antioxidant Test. The following applies: 5 μM test reagent, 500 μM DPPH. (The DPPH test is a chemical assay of radical scavenging.)
Test [1] addresses T1, 12-LOX in primary human islets (Homo sapiens, UniProt P18054).
T1 sequence (P18054 1-663): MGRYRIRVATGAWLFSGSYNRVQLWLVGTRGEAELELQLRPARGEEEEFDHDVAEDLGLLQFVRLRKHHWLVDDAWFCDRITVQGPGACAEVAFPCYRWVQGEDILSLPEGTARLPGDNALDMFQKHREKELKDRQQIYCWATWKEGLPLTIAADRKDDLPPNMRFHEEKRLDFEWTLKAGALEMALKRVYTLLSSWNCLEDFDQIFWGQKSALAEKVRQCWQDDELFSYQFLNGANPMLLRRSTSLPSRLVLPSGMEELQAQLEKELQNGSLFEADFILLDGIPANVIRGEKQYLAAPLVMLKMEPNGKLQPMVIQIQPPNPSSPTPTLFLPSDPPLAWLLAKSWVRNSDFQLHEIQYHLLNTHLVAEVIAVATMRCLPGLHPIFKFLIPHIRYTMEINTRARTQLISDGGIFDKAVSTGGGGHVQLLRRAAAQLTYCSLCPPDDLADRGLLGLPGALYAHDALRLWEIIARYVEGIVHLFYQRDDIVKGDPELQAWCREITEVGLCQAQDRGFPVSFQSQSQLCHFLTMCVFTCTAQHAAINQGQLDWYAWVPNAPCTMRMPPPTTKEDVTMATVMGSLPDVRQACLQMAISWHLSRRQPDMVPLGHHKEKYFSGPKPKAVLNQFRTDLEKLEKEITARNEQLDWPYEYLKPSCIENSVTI
The experiment in a line: Inhibition of 12-HETE Production in Human Donor Islets. To be noted: 10 μM, islets of two type 2 diabetic donors, AA + A23187. Type of test: cell-based.

A further test addresses T2, 12-LOX in platelets (Homo sapiens, UniProt P18054).
T2 sequence (P18054 1-663): T1 sequence (P18054 1-663)
To be noted: 100 μM inhibitor, three separate experiments.

The target in test [2] is T3, Human platelet 12-lipoxygenase (12-LOX) (Homo sapiens, UniProt P18054).
T3 sequence (P18054 1-663): T1 sequence (P18054 1-663)
The test can be described thus: Lipoxygenase UV-Vis-based manual assay, 12-LOX. The following applies: Triton X-100 from 0.005% to 0.02%. Type of test: biochemical.

Structures are written as SMILES.

For `CCC(=O)NC(c1cccs1)c1cc([N+](=O)[O-])c2cccnc2c1O` (centres unmarked) [Compound 1, N-((8-hydroxy-5-nitroquinolin-7-yl)(thiophen-2-yl)methyl)propionamide], in the test “DPPH Antioxidant Test”, the “reduction of DPPH” value is given as “no reduction of DPPH was observed”. Moreover, the “inhibition of stimulated 12-HETE production” value in test [1] is recorded as 74%. The “inhibition of PAR1-AP-mediated 12-HETE production” value on 12-LOX in platelets is on record as “significant inhibition”.

`CC(=O)NC(c1cccs1)c1cc(Cl)c2cccnc2c1O` (centres unmarked) [Compound 3, N-((5-chloro-8-hydroxyquinolin-7-yl)(thiophen-2-yl)methyl)acetamide]: the “change in IC50 with increasing Triton X-100 (aggregation test)” value in test [2] is on record as “negligible changes in the IC50”.

As to `CC(Cc1ccc(O)c(O)c1)C(C)Cc1ccc(O)c(O)c1` (centres unmarked) [NDGA, Nordihydroguaiaretic acid, reference compound], the “reduction of DPPH” value in “DPPH Antioxidant Test” is reported as “Stoichiometric reduction of DPPH”.
